Test results: patent publication US7462600B2, “Macrolides” (Pfizer Inc, priority 2004, dated 2008)
Converted amounts (≈) assume the structure as drawn.

Experiments:
Assay type in all cases: cell-based
[1] = test system: Haemophilus influenzae 1218; experiment: MIC, microtiter broth dilution (NCCLS M100-S14), H. influenzae 1218 (susceptible); conditions: Haemophilus influenzae 1218
In short: (§1)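 Susceptibility testing used microtiter trays with broth dilution. Values are minimum inhibitory concentrations interpreted under NCCLS guidance (M100-S14).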

[2] = test system: Streptococcus pneumoniae 1175; conditions: Streptococcus pneumoniae 1175; microtiter broth dilution
In short: as §1

[3] = test system: Streptococcus pneumoniae 1095; conditions: Streptococcus pneumoniae 1095; microtiter broth dilution
In short: as §1

[4] = test system: Streptococcus pneumoniae 1016; experiment: MIC, microtiter broth dilution (NCCLS M100-S14), S. pneumoniae 1016 (susceptible); conditions: Streptococcus pneumoniae 1016
In short: as §1

[5] = test system: Streptococcus pyogenes 1079; experiment: MIC, microtiter broth dilution (NCCLS M100-S14), S. pyogenes 1079 (ermB); conditions: Streptococcus pyogenes 1079
In short: as §1

Row | Structure (SMILES) | MIC H. influenzae 1218 [1] [µg/mL] | MIC S. pneumo. 1175 [2] [µg/mL] | MIC S. pneumo. 1095 [3] [µg/mL] | MIC S. pneumo. 1016 [4] [µg/mL] | MIC S. pyogenes 1079 [5] [µg/mL]
1 | CCC1OC(=O)C(C)C(=O)C(C)C(OC2OC(C)CC(N(C)C)C2O)C(C)(OC)CC(C)C(=O)C(C)C2N(C3CN(Cc4cccnc4)C3)C(=O)OC12C (stereo not drawn) [Example 1.03, (pyridin-3-yl)methyl] | 0.5 (≈ 0.659 µM) | 2 (≈ 2.64 µM) | <0.06 | <0.06 | >64.00
2 | CCC1OC(=O)C(C)C(=O)C(C)C(OC2OC(C)CC(N(C)C)C2O)C(C)(OC)CC(C)C(=O)C(C)C2N(C3CN(Cc4ccncc4)C3)C(=O)OC12C (stereo not drawn) [Example 1.04, (pyridin-4-yl)methyl] | 0.25 (≈ 0.329 µM) | 0.5 (≈ 0.659 µM) | 0.12 (≈ 0.158 µM) | <0.06 | >64.00
3 | CCC1OC(=O)C(C)C(=O)C(C)C(OC2OC(C)CC(N(C)C)C2O)C(C)(OC)CC(C)C(=O)C(C)C2N(C3CN(Cc4cccc5cccnc45)C3)C(=O)OC12C (stereo not drawn) [Example 1.05, (quinolin-8-yl)methyl] | 0.25 (≈ 0.309 µM) | 0.12 (≈ 0.148 µM) | <0.06 | <0.06 | 64 (≈ 79.1 µM)
4 | CCC1OC(=O)C(C)C(=O)C(C)C(OC2OC(C)CC(N(C)C)C2O)C(C)(OC)CC(C)C(=O)C(C)C2N(C3CN(Cc4cccc5ncccc45)C3)C(=O)OC12C (stereo not drawn) [Example 1.06, 3-descladinosyl-11,12-dideoxy-6-O-methyl-3-oxo-12,11-(oxycarbonyl-(1-((quinolin-5-yl)-methyl)-azetidin-3-yl)-imino)-erythromycin A] | 1 (≈ 1.24 µM) | <0.06 | <0.06 | <0.06 | 4 (≈ 4.94 µM)
5 | CCC1OC(=O)C(C)C(=O)C(C)C(OC2OC(C)CC(N(C)C)C2O)C(C)(OC)CC(C)C(=O)C(C)C2N(C3CN(Cc4cccc5nc[nH]c45)C3)C(=O)OC12C (stereo not drawn) [Example 1.11, 3-descladinosyl-11,12-dideoxy-6-O-methyl-3-oxo-12,11-(oxycarbonyl-(1-((1H-benzoimidazol-7-yl)-methy)-azetidin-3-yl)-imino)-erythromycin A] | <0.06 | 0.5 (≈ 0.627 µM) | <0.06 | <0.06 | 4 (≈ 5.01 µM)
6 | CCC1OC(=O)C(C)C(=O)C(C)C(OC2OC(C)CC(N(C)C)C2O)C(C)(OC)CC(C)C(=O)C(C)C2N(C3CN(Cc4cccc5nccnc45)C3)C(=O)OC12C (stereo not drawn) [Example 1.12, 3-descladinosyl-11,12-dideoxy-6-O-methyl-3-oxo-12,11-(oxycarbonyl-(1-((quinoxalin-8-yl)-methyl)-azetidin-3-yl)-imino)-erythromycin A] | 0.25 (≈ 0.309 µM) | <0.06 | <0.06 | <0.06 | 2 (≈ 2.47 µM)
7 | CCC1OC(=O)C(C)C(=O)C(C)C(OC2OC(C)CC(N(C)C)C2O)C(C)(OC)CC(C)C(=O)C(C)C2N(C3CN(Cc4cccc5ncoc45)C3)C(=O)OC12C (stereo not drawn) [Example 1.13, (benzooxazol-7-yl)methyl] | 0.25 (≈ 0.313 µM) | 1 (≈ 1.25 µM) | 0.12 (≈ 0.15 µM) | <0.06 | 64 (≈ 80.1 µM)
8 | CCC1OC(=O)C(C)C(=O)C(C)C(OC2OC(C)CC(N(C)C)C2O)C(C)(OC)CC(C)C(=O)C(C)C2N(C3CN(Cc4ccc(C#N)cc4)C3)C(=O)OC12C (stereo not drawn) [Example 1.14, 4-cyanobenzyl] | 0.25 (≈ 0.319 µM) | 0.5 (≈ 0.639 µM) | 1 (≈ 1.28 µM) | <0.06 | >64.00
9 | CCC1OC(=O)C(C)C(=O)C(C)C(OC2OC(C)CC(N(C)C)C2O)C(C)(OC)CC(C)C(=O)C(C)C2N(C3CN(Cc4cccc(C#N)c4)C3)C(=O)OC12C (stereo not drawn) [Example 1.15, 3-cyanobenzyl] | 0.25 (≈ 0.319 µM) | 0.25 (≈ 0.319 µM) | <0.06 | <0.06 | >64.00
10 | CCC1OC(=O)C(C)C(=O)C(C)C(OC2OC(C)CC(N(C)C)C2O)C(C)(OC)CC(C)C(=O)C(C)C2N(C3CN(Cc4ccnc5ccccc45)C3)C(=O)OC12C (stereo not drawn) [Example 1.16, 3-descladinosyl-11,12-dideoxy-6-O-methyl-3-oxo-12,11-(oxycarbonyl-(1-((quinolin-4-yl)-methyl)-azetidin-3-yl)-imino)-erythromycin A] | 0.5 (≈ 0.618 µM) | 0.25 (≈ 0.309 µM) | <0.06 | <0.06 | 4.25 (≈ 5.25 µM)
11 | CCC1OC(=O)C(C)C(=O)C(C)C(OC2OC(C)CC(N(C)C)C2O)C(C)(OC)CC(C)C(=O)C(C)C2N(C3CN(Cc4cnc5ncccc5c4)C3)C(=O)OC12C (stereo not drawn) [Example 1.17, (1,8-naphthyridin-3-yl)methyl] | 0.12 (≈ 0.148 µM) | 0.25 (≈ 0.309 µM) | <0.06 | <0.06 | >64.00
12 | CCC1OC(=O)C(C)C(=O)C(C)C(OC2OC(C)CC(N(C)C)C2O)C(C)(OC)CC(C)C(=O)C(C)C2N(C3CN(Cc4ccn[nH]4)C3)C(=O)OC12C (stereo not drawn) [Example 1.18, (1H-pyrazol-5-yl)methyl] | 0.25 (≈ 0.334 µM) | 2 (≈ 2.67 µM) | 1 (≈ 1.34 µM) | <0.06 | >64.00
13 | CCC1OC(=O)C(C)C(=O)C(C)C(OC2OC(C)CC(N(C)C)C2O)C(C)(OC)CC(C)C(=O)C(C)C2N(C3CN(Cc4cn[nH]c4)C3)C(=O)OC12C (stereo not drawn) [Example 1.19, (1H-pyrazol-4-yl)methyl] | 0.5 (≈ 0.669 µM) | 4 (≈ 5.35 µM) | 0.12 (≈ 0.16 µM) | <0.06 | >64.00
14 | CCC1OC(=O)C(C)C(=O)C(C)C(OC2OC(C)CC(N(C)C)C2O)C(C)(OC)CC(C)C(=O)C(C)C2N(C3CN(Cc4ccnc5ncccc45)C3)C(=O)OC12C (stereo not drawn) [Example 1.20, 3-descladinosyl-11,12-dideoxy-6-O-methyl-3-oxo-12,11-(oxycarbonyl-(1-((1,8-naphthyridin-4-yl)-methyl)-azetidin-3-yl)-imino)erythromycin A] | 0.25 (≈ 0.309 µM) | 0.12 (≈ 0.148 µM) | <0.06 | <0.06 | 1 (≈ 1.23 µM)
15 | CCC1OC(=O)C(C)C(=O)C(C)C(OC2OC(C)CC(N(C)C)C2O)C(C)(OC)CC(C)C(=O)C(C)C2N(C3CN(C(C)c4ccncc4)C3)C(=O)OC12C (stereo not drawn) [Example 1.21, 1R-(pyridin-4-yl)ethyl] | 2 (≈ 2.59 µM) | 0.5 (≈ 0.647 µM) | <0.06 | <0.06 | 32 (≈ 41.4 µM)
16 | CCC1OC(=O)C(C)C(=O)C(C)C(OC2OC(C)CC(N(C)C)C2O)C(C)(OC)CC(C)C(=O)C(C)C2N(C3CN(C(C)c4ccncc4)C3)C(=O)OC12C (stereo not drawn) [Example 1.22, 1S-(pyridin-4-yl)ethyl] | 16 (≈ 20.7 µM) | 1 (≈ 1.29 µM) | 1 (≈ 1.29 µM) | <0.06 | >64.00
17 | CCC1OC(=O)C(C)C(=O)C(C)C(OC2OC(C)CC(N(C)C)C2O)C(C)(OC)CC(C)C(=O)C(C)C2N(C3CN(C(C)c4ccnc5ncccc45)C3)C(=O)OC12C (stereo not drawn) [Example 1.23, 3-descladinosyl-11,12-dideoxy-6-O-methyl-3-oxo-12,11-(oxycarbonyl-(1-(1S-(1,8-naphthyridin4-yl)-ethyl)-azetidin-3-yl)-imino)-erythromycin A] | 0.5 (≈ 0.607 µM) | 0.25 (≈ 0.303 µM) | <0.06 | <0.06 | 16 (≈ 19.4 µM)
18 | CCC1OC(=O)C(C)C(=O)C(C)C(OC2OC(C)CC(N(C)C)C2O)C(C)(OC)CC(C)C(=O)C(C)C2N(C3CN(Cc4ccnc5nccnc45)C3)C(=O)OC12C (stereo not drawn) [Example 1.24, 3-descladinosyl-11,12-dideoxy-6-O-methyl-3-oxo-12,11-(oxycarbonyl-(1-((pyrido[2,3-b]pyrazin-4-yl)-methy)-azetidin-3-yl)-imino)-erythromycin A] | 1 (≈ 1.23 µM) | 0.25 (≈ 0.308 µM) | <0.06 | <0.06 | 4 (≈ 4.93 µM)
